From US4244954A, “Acridine compounds and methods of combatting viruses with them” (Sterling Drug Inc., priority 1978, dated 1981) come the findings set out here.

The subject of series [1] is Trypanosoma brucei. The format is in vivo, mice. How it is done: Trypanosomacidal activity was determined against Trypanosoma brucei in mice. In a curative test medication was given (orally or parenterally) as a single dose or daily in equally subdivided doses eight hours apart for four days beginning 72 hours after intraperitoneal infection. In a prophylactic-suppressive test the total daily medication was given as a single treatment one day prior to infection, and thereafter for three consecutive days the total daily medications were administered as equally subdivided doses eight hours apart. The infection was uniformly fatal in five to six days in the absence of therapy. Chemotherapeutic effectiveness was based on extension of survival time. Tests were considered terminated 28 days after infection.

For series [2], the system named is C. albicans. Kind of series: in vitro antimicrobial activity, serial dilution, C. albicans. The format is cell-based. To be noted: Candida albicans, read-out: MIC, fungistatic activity against C. albicans. How it is done:
(§1) The antimicrobial activity of the compounds was determined in vitro by the conventional serial dilution technique against several species of bacteria and fungi, e.g. S. aureus, S. pyogenes, C. albicans, T. mentagrophytes.

In series [3] the test system is herpes simplex virus type 2. Kind of series: in vitro antiviral activity, serial dilution, herpes simplex virus type 2. Type of series: cell-based. To be noted: Human alphaherpesvirus 2; concentration at which active; read-out: antiviral activity against herpes type 2. The method, then: Antiviral activity was determined in vitro by the conventional serial dilution technique against selected virus species such as herpes simplex virus types 1 and 2. In vivo antiviral activity was determined against herpes virus in the mouse genital model and the guinea pig skin infection model.

Series [4] deals with T. mentagrophytes. Kind of series: in vitro antimicrobial activity, serial dilution, T. mentagrophytes. The format is cell-based. To be noted: Trichophyton mentagrophytes, read-out: MIC, fungistatic activity against T. mentagrophytes. The method, then:
as §1

For series [5], the system named is S. pyogenes. Kind of series: in vitro antimicrobial activity, serial dilution, S. pyogenes. Type of series: cell-based. Conditions: Streptococcus pyogenes, read-out: minimum inhibitory concentration (MIC), bacteriostatic activity against S. pyogenes. The method, then: as §1

As for `CN(C)CCOc1ccc2c(c1)c(Cc1ccccc1)c1ccc(Cl)cc1[n+]2C.Cl.[Cl-]` [Example 86, 2-(2-Dimethylaminoethoxy)-6-chloro-10-methyl-9-benzylacridinium chloride hydrochloride], the “curative effect against T. brucei infection” value in series [1] (mice, oral, 50 mg/kg/day×4) is recorded as “ineffective”. Besides, the “toxicity to the animals in the oral curative test” value in series [1] (mouse, in vivo, po, 200 mg/kg/day) is “toxic to the animals”. Besides, the MIC in series [2] turned out to be 15.6 µg/mL; in series [4], 31.3 µg/mL; in series [5], 7.8 µg/mL. Further, the minimal effective concentration in series [3] was found to be 12 µg/mL.
